Reference: patent US9260376B2, “Compounds for use in the treatment of immune related inflammatory disease” (VENANTIUS LIMITED, priority 2011, dated 2016)

Test system: IL2 release from Jurkat cells (T cell line Jurkat 6.1)
Assay: Effect of compounds on IL-2 secretion in T lymphocytes (anti-CD3/anti-CD28 stimulated, ELISA)
Assay type: cell-based
Conditions: control inhibitors; plates 2 and 3
Experimental: The T cell line Jurkat 6.1 (ATCC) was used. Cells were pre-treated for 30 min with 1 μM or 10 μM of the respective compound and then stimulated with plate-bound anti-CD3 (BD Pharmingen) and anti-CD28 (AnCell). DMSO was used as vehicle control. […] After 24 hs the supernatant was collected and IL-2 secretion was measured by ELISA.
Compounds were prepared by dissolution in DMSO to yield final concentrations of 1 and 10 μg/ml

For `CN[C@@H]1C[C@H]2O[C@@](C)([C@@H]1OC)n1c3ccccc3c3c4c(c5c6ccccc6n2c5c31)C(=O)NC4` [Stauros], the IL-2 pg/ml was 117.75 pg/mL.
